ChEMBL document CHEMBL1201862, “PubChem BioAssay data set” (2004)
The source made the active and inactive calls.

Legend:
[1] = molecular target: Cytochrome P450 2C9 (Homo sapiens, UniProt P11712)
[2] = molecular target: T1, Endoribonuclease toxin MazF (Escherichia coli K-12, UniProt P0AE70); experiment: activation of MazEF endoribonuclease cleavage – biochemical, fluorescence, single-stranded RNA substrate, uHTS hits, dose response (AID 588481); assay type: functional
T1 sequence (P0AE70 whole entry): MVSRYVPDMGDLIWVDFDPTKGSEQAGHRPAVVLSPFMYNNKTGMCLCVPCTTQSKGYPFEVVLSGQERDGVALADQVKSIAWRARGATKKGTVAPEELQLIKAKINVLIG

[3] = molecular target: T1, Endoribonuclease toxin MazF; experiment: substrate-only fluorescence increase artefacts – biochemical, single-stranded RNase substrate, counter-screen for MazEF activator project, dose response (AID 588502); assay type: functional
[4] = tested on: A-375; experiment: proliferation inhibition in MITF-low A375 cells – cell-based, cherry-pick samples, set 2, counter-screen for MITF modulator project, dose response (AID 540335); assay type: functional; details: Homo sapiens
[5] = molecular target: T2, Microphthalmia-associated transcription factor (Homo sapiens, UniProt O75030); experiment: reducers of TRPM1 reporter luminescence, concentration series – cell-based, SK-MEL-5, cherry-picked, set 3, MITF inhibitor project, dose response (AID 493073); assay type: functional;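 also: SK-MEL-5 melanoma cells with luciferase driven by the MITF target TRPM1 promoter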
T2 sequence (O75030 whole entry): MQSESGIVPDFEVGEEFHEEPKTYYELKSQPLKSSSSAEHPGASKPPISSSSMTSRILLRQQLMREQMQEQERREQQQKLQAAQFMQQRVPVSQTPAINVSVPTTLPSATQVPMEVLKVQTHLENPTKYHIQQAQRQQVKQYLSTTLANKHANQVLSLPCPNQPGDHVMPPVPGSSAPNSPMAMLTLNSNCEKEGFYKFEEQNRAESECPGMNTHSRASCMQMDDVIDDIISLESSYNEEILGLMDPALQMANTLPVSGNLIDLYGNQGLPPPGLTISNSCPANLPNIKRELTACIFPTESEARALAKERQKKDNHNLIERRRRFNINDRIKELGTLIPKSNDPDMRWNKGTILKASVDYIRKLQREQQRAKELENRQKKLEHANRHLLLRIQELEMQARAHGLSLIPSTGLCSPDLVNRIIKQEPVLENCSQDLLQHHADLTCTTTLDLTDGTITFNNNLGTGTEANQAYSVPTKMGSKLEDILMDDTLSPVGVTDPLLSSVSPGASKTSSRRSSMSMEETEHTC

[6] = Luminescence Cell-Based Dose Retest to Confirm Inhibitors of Cancer Stem Cells. [Related pubchem assays (depositor defined):AID2717, AID2721]; assay type: functional; details: Homo sapiens
[7] = tested on: INS1; experiment: INS-1E survival protection against cytokine death – cell-based, luminescence, retest, dose response (AID 449756); assay type: functional; details: Rattus norvegicus;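 also: cell death triggered by IL-1 beta plus TNF-alpha plus IFN-gamma mixture; protective hits raise ATP signal compared with cytokine alone wells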
[8] = molecular target: T3, Caspase-3 (Homo sapiens, UniProt P42574); assay type: functional;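 also: Dose-response selectivity test against caspase-3 for candidate inhibitors of sentrin-specific proteases (SENPs)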
T3 sequence (P42574 whole entry): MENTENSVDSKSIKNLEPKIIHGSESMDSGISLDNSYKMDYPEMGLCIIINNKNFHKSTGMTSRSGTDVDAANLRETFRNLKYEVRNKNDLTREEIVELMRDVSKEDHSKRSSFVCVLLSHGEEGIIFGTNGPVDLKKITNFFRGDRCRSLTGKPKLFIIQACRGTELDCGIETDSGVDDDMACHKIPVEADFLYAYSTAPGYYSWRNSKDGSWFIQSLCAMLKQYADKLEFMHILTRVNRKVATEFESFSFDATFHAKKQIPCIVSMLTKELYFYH

[9] = molecular target: T4, Sentrin-specific protease 8 (Homo sapiens, UniProt Q96LD8); assay type: functional;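 also: luminescence read-out of SENP8 inhibition, dose-response confirmation following an ultra-high-throughput screen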
T4 sequence (Q96LD8 whole entry): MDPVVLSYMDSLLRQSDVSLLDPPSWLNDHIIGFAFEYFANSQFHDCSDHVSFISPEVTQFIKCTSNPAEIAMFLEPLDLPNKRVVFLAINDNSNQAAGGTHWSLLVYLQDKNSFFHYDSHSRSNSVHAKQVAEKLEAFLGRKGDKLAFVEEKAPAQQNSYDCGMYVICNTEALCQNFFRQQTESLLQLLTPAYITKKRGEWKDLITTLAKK

[10] = molecular target: T5, Sentrin-specific protease 7 (Homo sapiens, UniProt Q9BQF6); assay type: functional;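 also: Luminescence-based dose-response confirmation of ultra-high-throughput screening hits, measuring inhibition of SENP7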
T5 sequence (Q9BQF6 whole entry): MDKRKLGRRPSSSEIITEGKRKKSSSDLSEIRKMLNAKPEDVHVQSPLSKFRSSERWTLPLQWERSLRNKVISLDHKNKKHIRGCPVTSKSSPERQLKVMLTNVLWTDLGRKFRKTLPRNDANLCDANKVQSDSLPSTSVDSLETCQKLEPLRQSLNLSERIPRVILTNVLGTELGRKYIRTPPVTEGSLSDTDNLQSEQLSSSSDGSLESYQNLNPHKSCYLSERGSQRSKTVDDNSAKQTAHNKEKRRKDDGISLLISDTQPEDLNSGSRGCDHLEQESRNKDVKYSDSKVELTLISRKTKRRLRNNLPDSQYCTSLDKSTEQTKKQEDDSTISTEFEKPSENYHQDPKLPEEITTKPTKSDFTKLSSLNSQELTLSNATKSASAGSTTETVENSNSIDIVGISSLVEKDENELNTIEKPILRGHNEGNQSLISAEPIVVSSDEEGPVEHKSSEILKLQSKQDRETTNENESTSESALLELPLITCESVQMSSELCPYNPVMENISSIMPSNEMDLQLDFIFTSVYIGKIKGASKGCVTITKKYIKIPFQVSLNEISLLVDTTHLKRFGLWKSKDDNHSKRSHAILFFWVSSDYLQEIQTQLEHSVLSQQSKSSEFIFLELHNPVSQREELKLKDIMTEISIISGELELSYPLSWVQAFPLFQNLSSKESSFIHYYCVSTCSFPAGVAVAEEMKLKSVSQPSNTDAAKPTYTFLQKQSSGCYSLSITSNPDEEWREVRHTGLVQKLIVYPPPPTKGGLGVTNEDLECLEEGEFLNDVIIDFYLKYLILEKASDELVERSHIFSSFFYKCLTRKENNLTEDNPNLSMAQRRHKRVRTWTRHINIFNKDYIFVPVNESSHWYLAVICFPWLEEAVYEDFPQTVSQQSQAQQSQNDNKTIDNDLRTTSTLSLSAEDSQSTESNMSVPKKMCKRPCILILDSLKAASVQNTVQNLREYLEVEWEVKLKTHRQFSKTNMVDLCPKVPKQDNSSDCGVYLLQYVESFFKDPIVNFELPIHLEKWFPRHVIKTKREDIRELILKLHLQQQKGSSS

[11] = molecular target: T6, Sentrin-specific protease 6 (Homo sapiens, UniProt Q9GZR1); assay type: functional;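 also: Luminescence-based dose-response confirmatory assay of SENP6 inhibition, following up an ultra-high-throughput screen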
T6 sequence (Q9GZR1 whole entry): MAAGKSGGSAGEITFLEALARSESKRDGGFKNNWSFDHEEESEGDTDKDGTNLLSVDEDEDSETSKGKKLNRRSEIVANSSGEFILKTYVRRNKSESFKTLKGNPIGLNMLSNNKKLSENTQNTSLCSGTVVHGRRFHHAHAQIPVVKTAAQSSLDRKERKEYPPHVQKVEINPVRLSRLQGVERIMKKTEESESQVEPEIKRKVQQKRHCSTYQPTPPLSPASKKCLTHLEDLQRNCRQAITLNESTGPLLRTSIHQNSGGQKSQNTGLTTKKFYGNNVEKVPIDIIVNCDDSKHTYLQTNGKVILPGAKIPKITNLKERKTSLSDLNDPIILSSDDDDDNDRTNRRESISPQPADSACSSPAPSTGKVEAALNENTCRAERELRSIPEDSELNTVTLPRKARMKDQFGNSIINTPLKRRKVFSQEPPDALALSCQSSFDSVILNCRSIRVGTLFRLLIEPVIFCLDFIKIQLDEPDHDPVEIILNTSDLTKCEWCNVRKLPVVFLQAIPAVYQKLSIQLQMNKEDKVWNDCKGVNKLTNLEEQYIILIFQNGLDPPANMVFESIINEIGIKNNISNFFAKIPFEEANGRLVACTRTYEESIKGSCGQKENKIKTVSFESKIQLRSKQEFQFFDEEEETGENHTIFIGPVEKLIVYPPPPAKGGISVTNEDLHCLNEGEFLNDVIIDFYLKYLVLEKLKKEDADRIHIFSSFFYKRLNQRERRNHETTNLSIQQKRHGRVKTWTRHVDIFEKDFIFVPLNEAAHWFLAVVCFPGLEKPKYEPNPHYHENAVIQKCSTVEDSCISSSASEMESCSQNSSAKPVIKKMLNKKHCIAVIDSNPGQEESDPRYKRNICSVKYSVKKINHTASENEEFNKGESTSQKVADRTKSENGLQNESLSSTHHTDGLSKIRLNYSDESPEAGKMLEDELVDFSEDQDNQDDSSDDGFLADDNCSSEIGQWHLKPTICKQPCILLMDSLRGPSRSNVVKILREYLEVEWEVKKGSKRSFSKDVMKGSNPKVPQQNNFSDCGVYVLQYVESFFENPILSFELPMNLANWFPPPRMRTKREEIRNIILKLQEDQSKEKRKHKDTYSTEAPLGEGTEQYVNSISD

[12] = molecular target: T7, Protein skinhead-1 (Caenorhabditis elegans, UniProt P34707); assay type: functional
T7 sequence (P34707 whole entry): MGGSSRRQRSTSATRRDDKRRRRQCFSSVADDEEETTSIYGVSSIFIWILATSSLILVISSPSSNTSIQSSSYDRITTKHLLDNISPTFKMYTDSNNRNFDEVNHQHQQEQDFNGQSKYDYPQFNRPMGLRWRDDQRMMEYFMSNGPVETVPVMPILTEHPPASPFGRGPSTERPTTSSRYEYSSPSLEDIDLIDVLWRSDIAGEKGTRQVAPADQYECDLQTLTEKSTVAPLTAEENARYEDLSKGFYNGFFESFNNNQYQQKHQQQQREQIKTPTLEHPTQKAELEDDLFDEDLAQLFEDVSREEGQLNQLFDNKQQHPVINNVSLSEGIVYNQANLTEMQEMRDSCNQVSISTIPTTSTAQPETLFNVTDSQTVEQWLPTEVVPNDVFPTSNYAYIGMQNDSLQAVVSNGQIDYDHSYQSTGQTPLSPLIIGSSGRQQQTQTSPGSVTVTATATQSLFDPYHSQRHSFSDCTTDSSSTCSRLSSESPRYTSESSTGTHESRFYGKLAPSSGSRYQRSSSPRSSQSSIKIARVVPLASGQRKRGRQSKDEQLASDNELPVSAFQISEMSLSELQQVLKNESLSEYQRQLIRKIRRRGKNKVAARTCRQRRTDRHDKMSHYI

[13] = alpha-synuclein stem-loop luciferase translation blockers – H4 neuroglioma cells, luminescence, confirmation (AID 1988); assay type: functional, cell-based
[14] = luciferase reporter signal suppression in cells – H4 neuroglioma cells, luminescence, dose response (AID 1990); assay type: functional, cell-based
[15] = Luminescence Cell-Based Dose Response HTS to Identify Inhibitors of 5'UTR Stem-Loop Driven Prion Protein mRNA Translation in H4 Neuroglioblastoma Cells. [Related pubchem assays: 1827 (Project Summary), 1813 (Primary HTS)]; assay type: functional

Sequence of Cytochrome P450 2C9 (P11712 whole entry): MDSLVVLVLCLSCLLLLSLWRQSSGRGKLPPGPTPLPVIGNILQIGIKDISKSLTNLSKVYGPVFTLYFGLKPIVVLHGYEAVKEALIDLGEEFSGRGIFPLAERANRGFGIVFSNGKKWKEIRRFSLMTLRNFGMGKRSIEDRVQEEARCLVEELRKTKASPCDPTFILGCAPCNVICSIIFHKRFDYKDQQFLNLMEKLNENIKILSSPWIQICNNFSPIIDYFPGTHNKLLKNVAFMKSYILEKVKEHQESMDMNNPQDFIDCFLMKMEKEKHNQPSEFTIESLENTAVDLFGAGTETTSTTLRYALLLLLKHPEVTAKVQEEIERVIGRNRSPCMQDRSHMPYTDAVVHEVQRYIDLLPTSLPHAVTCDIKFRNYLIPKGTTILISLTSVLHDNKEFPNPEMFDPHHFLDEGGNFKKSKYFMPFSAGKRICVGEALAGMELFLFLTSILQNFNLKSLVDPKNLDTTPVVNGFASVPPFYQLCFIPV

| Structure (SMILES) | AC50 [4] | AC50 [5] | IC50 [8] | IC50 [9] | IC50 [10] | IC50 [11] | other results |
| --- | --- | --- | --- | --- | --- | --- | --- |
| COc1cc(/C=N/NC(=O)c2cccnc2)ccc1OC(=O)c1ccc2c(c1)OCO2 |  |  |  |  |  |  | AC50 [1]: 7.94 µM (inconclusive); EC50 [2]: > 99 µM (inactive); EC50 [3]: > 99 µM (inactive) |
| O=C(Nc1ccc(Nc2ccncc2)cc1)c1ccc([N+](=O)[O-])cc1 | 33.1 µM (active) | 7.22 µM (active) |  |  |  |  |  |
| CC(=O)c1c(C)oc2c1C(=O)c1ccccc1C2=O | 41.3 µM (active) | 6.68 µM (active) |  |  |  |  | AC50 [6]: 3.93 µM (active); AC50 [7]: 4.35 µM (active) |
| O=C(Nc1cc[n+](-c2nc3ccccc3nc2[N-]S(=O)(=O)c2ccccc2)cc1)c1cccs1 |  |  |  |  |  |  | EC50 [2]: > 99 µM (inactive); EC50 [3]: > 99 µM (inactive) |
| CCOC(=O)c1sc(-c2ccc(OC)cc2)cc1N |  |  | 37.5 µM (active) | 10.7 µM (active) | 7.33 µM (active) | 12.1 µM (active) |  |
| CC(C)(C)NC(=O)COc1ccc(-c2ccccc2)cc1 |  |  | 24.6 µM (active) | 70.7 µM (active) | 12.3 µM (active) | 52.6 µM (active) |  |
| FC(F)(F)c1ccnc(Oc2ccc(C3=NCCS3)cc2)c1 |  |  | 11.5 µM (active) | 5.09 µM (active) | 2.36 µM (active) | 4.94 µM (active) | IC50 [12]: 94.5 µM (inactive) |
| Cc1nnc2nc(SCC(=O)NCCC3=CCCCC3)n(-c3ccc(Br)cc3)c(N)c1-2 | 26.9 µM (active) | 2.46 µM (active) |  |  |  |  | EC50 [13]: 8.54 µM (active); EC50 [14]: 9.9 µM (active); AC50 [7]: 5.09 µM (active); EC50 [15]: 15.4 µM (active) |
